# According to ChEMBL document CHEMBL1909046, “DrugMatrix in vitro pharmacology data”:
# Biological target: Platelet-activating factor receptor (Homo sapiens, UniProt P25105); further: in other assays of this panel Not Active means under 50% inhibition at 10 µM
# Assay: not given
# Format: tissue-based
# Settings: not given
# Sequence of Platelet-activating factor receptor (P25105 whole entry): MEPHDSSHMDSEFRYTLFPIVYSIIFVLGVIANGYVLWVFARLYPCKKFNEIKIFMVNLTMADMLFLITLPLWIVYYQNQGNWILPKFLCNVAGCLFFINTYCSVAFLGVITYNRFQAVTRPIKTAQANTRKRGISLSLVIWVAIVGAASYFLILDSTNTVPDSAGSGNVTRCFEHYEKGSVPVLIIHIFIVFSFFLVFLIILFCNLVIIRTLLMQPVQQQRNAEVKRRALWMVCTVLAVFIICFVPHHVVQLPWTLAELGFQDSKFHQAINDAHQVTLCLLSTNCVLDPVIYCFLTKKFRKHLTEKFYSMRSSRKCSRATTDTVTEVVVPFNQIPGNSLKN
row,SMILES,IC50
1,CCOC(=O)C1=C(C)NC(C)=C(C(=O)OC)C1c1cccc([N+](=O)[O-])c1 (stereo not given) [NITRENDIPINE],Not Active
2,C#C[C@]1(OC(C)=O)CC[C@H]2[C@@H]3CCC4=CC(=O)CC[C@@H]4[C@H]3CC[C@@]21C [NORETHINDRONE ACETATE],Not Active
3,COc1ccc2[nH]c([S+]([O-])Cc3ncc(C)c(OC)c3C)nc2c1 (stereo not given) [OMEPRAZOLE],Not Active
4,Cc1nccn1CC1CCc2c(c3ccccc3n2C)C1=O (stereo not given) [ONDANSETRON],Not Active
5,CCn1cc(C(=O)O)c(=O)c2cc(F)c(N3CCN(C)CC3)cc21 [PEFLOXACIN],Not Active

# Biological target: T1, Type-2 angiotensin II receptor (Homo sapiens, UniProt P50052); further: in other assays of this panel Not Active means under 50% inhibition at 10 µM
# T1 sequence (P50052 whole entry): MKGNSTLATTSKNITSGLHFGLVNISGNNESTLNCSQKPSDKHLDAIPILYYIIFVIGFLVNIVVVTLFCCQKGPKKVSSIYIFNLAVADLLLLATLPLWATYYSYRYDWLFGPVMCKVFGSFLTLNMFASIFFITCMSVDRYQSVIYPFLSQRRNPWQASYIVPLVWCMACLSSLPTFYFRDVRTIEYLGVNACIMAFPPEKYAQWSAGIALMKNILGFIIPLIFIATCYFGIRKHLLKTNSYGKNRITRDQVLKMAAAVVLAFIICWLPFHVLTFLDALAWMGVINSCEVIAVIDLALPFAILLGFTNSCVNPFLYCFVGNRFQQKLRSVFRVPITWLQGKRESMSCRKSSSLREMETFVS
# Assay: not given
# Format: cell-based
# Settings: cho-k1
row,SMILES,IC50
1,CCOC(=O)C1=C(C)NC(C)=C(C(=O)OC)C1c1cccc([N+](=O)[O-])c1 (stereo not given) [NITRENDIPINE],Not Active
2,C#C[C@]1(OC(C)=O)CC[C@H]2[C@@H]3CCC4=CC(=O)CC[C@@H]4[C@H]3CC[C@@]21C [NORETHINDRONE ACETATE],Not Active
3,COc1ccc2[nH]c([S+]([O-])Cc3ncc(C)c(OC)c3C)nc2c1 (stereo not given) [OMEPRAZOLE],Not Active
4,Cc1nccn1CC1CCc2c(c3ccccc3n2C)C1=O (stereo not given) [ONDANSETRON],Not Active
5,CCn1cc(C(=O)O)c(=O)c2cc(F)c(N3CCN(C)CC3)cc21 [PEFLOXACIN],Not Active

# Biological target: T2, C-C chemokine receptor type 4 (Homo sapiens, UniProt P51679); further: in other assays of this panel Not Active means under 50% inhibition at 10 µM
# T2 sequence (P51679 whole entry): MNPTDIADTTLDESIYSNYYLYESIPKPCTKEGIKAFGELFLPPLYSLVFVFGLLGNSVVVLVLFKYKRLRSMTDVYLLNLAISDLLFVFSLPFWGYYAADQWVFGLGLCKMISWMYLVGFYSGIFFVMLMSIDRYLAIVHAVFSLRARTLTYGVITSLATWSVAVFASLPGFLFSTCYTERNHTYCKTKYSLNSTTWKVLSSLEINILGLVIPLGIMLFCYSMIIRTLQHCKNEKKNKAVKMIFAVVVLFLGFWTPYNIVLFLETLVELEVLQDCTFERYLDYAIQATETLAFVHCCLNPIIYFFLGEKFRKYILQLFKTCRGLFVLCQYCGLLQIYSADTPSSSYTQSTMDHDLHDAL
# Assay: not given
# Format: cell membranes, Membrane
# Settings: chem-1
row,SMILES,IC50
1,CCOC(=O)C1=C(C)NC(C)=C(C(=O)OC)C1c1cccc([N+](=O)[O-])c1 (stereo not given) [NITRENDIPINE],Not Active
2,C#C[C@]1(OC(C)=O)CC[C@H]2[C@@H]3CCC4=CC(=O)CC[C@@H]4[C@H]3CC[C@@]21C [NORETHINDRONE ACETATE],Not Active
3,COc1ccc2[nH]c([S+]([O-])Cc3ncc(C)c(OC)c3C)nc2c1 (stereo not given) [OMEPRAZOLE],Not Active
4,Cc1nccn1CC1CCc2c(c3ccccc3n2C)C1=O (stereo not given) [ONDANSETRON],Not Active
5,CCn1cc(C(=O)O)c(=O)c2cc(F)c(N3CCN(C)CC3)cc21 [PEFLOXACIN],Not Active

# Biological target: Mitogen-activated protein kinase 3 (Homo sapiens, UniProt P27361)
# Sequence (P27361 whole entry): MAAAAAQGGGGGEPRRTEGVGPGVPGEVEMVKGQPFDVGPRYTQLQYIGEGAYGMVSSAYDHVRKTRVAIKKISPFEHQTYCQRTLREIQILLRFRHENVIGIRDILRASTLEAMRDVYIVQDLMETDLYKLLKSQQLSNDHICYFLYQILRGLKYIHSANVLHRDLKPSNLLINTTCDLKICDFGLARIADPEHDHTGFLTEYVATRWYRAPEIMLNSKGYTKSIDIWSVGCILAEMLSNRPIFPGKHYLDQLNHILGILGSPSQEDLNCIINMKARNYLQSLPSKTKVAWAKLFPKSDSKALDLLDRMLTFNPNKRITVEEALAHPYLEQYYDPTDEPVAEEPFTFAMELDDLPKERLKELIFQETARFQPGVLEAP
# Assay: DRUGMATRIX: Protein Serine/Threonine Kinase, ERK1 enzyme inhibition (substrate: Myelin Basic Protein)
# Design: species or system Escherichia coli
# Settings: Not Active = under 50% inhibition at 10 µM
row,SMILES,IC50
1,CCOC(=O)C1=C(C)NC(C)=C(C(=O)OC)C1c1cccc([N+](=O)[O-])c1 (stereo not given) [NITRENDIPINE],Not Active
2,C#C[C@]1(OC(C)=O)CC[C@H]2[C@@H]3CCC4=CC(=O)CC[C@@H]4[C@H]3CC[C@@]21C [NORETHINDRONE ACETATE],Not Active
3,COc1ccc2[nH]c([S+]([O-])Cc3ncc(C)c(OC)c3C)nc2c1 (stereo not given) [OMEPRAZOLE],Not Active
4,Cc1nccn1CC1CCc2c(c3ccccc3n2C)C1=O (stereo not given) [ONDANSETRON],Not Active
5,CCn1cc(C(=O)O)c(=O)c2cc(F)c(N3CCN(C)CC3)cc21 [PEFLOXACIN],Not Active

# Biological target: T3, Angiotensin-converting enzyme (Oryctolagus cuniculus, UniProt P12822);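 further: enzymatic inhibition of angiotensin-converting enzyme measured with FAPGG as the substrate; in other assays of this panel Not Active means under 50% inhibition at 10 µM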
# T3 sequence (P12822 whole entry): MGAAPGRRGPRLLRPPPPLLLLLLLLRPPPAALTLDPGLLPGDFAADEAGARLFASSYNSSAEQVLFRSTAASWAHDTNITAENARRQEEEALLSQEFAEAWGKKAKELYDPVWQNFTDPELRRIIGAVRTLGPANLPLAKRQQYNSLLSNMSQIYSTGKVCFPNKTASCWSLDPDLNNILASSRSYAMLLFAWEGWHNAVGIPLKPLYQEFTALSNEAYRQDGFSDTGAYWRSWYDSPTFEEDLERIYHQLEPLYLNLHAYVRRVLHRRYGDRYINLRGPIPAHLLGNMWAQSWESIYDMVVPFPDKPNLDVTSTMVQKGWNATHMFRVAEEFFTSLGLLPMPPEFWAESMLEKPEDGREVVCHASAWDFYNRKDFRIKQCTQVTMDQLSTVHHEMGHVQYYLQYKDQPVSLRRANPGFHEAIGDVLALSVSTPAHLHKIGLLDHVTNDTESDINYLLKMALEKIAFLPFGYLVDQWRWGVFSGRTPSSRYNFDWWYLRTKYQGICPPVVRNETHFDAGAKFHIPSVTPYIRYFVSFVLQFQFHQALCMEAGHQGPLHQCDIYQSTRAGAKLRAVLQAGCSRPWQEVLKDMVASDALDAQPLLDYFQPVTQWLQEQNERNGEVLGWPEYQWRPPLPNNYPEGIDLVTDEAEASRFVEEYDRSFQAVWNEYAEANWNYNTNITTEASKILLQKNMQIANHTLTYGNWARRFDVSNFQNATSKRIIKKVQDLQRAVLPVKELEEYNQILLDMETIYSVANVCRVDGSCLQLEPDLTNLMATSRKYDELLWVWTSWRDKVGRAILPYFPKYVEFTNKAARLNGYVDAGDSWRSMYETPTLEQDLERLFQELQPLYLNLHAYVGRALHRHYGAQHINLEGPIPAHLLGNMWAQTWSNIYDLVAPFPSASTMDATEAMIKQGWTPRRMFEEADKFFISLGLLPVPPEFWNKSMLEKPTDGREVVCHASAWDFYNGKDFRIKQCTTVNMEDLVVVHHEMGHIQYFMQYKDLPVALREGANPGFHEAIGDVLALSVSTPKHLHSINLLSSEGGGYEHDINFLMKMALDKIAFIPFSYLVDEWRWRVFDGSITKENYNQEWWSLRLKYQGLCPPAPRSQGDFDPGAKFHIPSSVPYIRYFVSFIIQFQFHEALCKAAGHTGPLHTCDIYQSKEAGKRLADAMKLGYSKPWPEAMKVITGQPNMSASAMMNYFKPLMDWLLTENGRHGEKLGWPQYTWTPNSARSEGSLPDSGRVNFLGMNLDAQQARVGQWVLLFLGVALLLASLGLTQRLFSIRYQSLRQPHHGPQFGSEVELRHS
# Assay: not given
# Format: tissue-based, Lung
# Settings: not given
row,SMILES,IC50
1,CCOC(=O)C1=C(C)NC(C)=C(C(=O)OC)C1c1cccc([N+](=O)[O-])c1 (stereo not given) [NITRENDIPINE],Not Active
2,C#C[C@]1(OC(C)=O)CC[C@H]2[C@@H]3CCC4=CC(=O)CC[C@@H]4[C@H]3CC[C@@]21C [NORETHINDRONE ACETATE],Not Active
3,COc1ccc2[nH]c([S+]([O-])Cc3ncc(C)c(OC)c3C)nc2c1 (stereo not given) [OMEPRAZOLE],Not Active
4,Cc1nccn1CC1CCc2c(c3ccccc3n2C)C1=O (stereo not given) [ONDANSETRON],Not Active
5,CCn1cc(C(=O)O)c(=O)c2cc(F)c(N3CCN(C)CC3)cc21 [PEFLOXACIN],Not Active

# Biological target: T4, B2 bradykinin receptor (Homo sapiens, UniProt P30411); further: in other assays of this panel Not Active means under 50% inhibition at 10 µM
# T4 sequence (P30411 whole entry): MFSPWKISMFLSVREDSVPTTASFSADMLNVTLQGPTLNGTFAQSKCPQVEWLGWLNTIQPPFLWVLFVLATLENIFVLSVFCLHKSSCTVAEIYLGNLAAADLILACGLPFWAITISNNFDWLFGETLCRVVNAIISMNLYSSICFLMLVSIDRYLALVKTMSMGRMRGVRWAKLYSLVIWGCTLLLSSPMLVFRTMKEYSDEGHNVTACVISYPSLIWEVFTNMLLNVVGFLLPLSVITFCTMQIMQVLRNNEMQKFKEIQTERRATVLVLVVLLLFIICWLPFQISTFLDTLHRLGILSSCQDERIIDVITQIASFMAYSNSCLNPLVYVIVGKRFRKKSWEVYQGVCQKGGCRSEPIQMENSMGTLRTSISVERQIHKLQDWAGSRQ
# Assay: not given
# Format: cell membranes, Membrane
# Settings: chem-1
row,SMILES,IC50
1,CCOC(=O)C1=C(C)NC(C)=C(C(=O)OC)C1c1cccc([N+](=O)[O-])c1 (stereo not given) [NITRENDIPINE],Not Active
2,C#C[C@]1(OC(C)=O)CC[C@H]2[C@@H]3CCC4=CC(=O)CC[C@@H]4[C@H]3CC[C@@]21C [NORETHINDRONE ACETATE],Not Active
3,COc1ccc2[nH]c([S+]([O-])Cc3ncc(C)c(OC)c3C)nc2c1 (stereo not given) [OMEPRAZOLE],Not Active
4,Cc1nccn1CC1CCc2c(c3ccccc3n2C)C1=O (stereo not given) [ONDANSETRON],Not Active
5,CCn1cc(C(=O)O)c(=O)c2cc(F)c(N3CCN(C)CC3)cc21 [PEFLOXACIN],Not Active

# Biological target: Aldo-keto reductase family 1 member B1 (Rattus norvegicus, UniProt P07943)
# Assay: biochemical
# Format: tissue-based, Lens of camera-type eye
# Settings: not given
row,SMILES,IC50
1,CCOC(=O)C1=C(C)NC(C)=C(C(=O)OC)C1c1cccc([N+](=O)[O-])c1 (stereo not given) [NITRENDIPINE],Not Active
2,C#C[C@]1(OC(C)=O)CC[C@H]2[C@@H]3CCC4=CC(=O)CC[C@@H]4[C@H]3CC[C@@]21C [NORETHINDRONE ACETATE],Not Active
3,COc1ccc2[nH]c([S+]([O-])Cc3ncc(C)c(OC)c3C)nc2c1 (stereo not given) [OMEPRAZOLE],Not Active
4,Cc1nccn1CC1CCc2c(c3ccccc3n2C)C1=O (stereo not given) [ONDANSETRON],Not Active
5,CCn1cc(C(=O)O)c(=O)c2cc(F)c(N3CCN(C)CC3)cc21 [PEFLOXACIN],Not Active

# Tested on: not listed separately
# Assay: DRUGMATRIX: Leukotriene, BLT (LTB4) radioligand binding (ligand: [3H]LTB4)
# Format: cell membranes, Membrane
# Settings: u-937; Not Active = under 50% inhibition at 10 µM
SMILES,IC50,Ki
CCOC(=O)C1=C(C)NC(C)=C(C(=O)OC)C1c1cccc([N+](=O)[O-])c1 (stereo not given) [NITRENDIPINE],Not Active,Not Active
C#C[C@]1(OC(C)=O)CC[C@H]2[C@@H]3CCC4=CC(=O)CC[C@@H]4[C@H]3CC[C@@]21C [NORETHINDRONE ACETATE],Not Active,Not Active
COc1ccc2[nH]c([S+]([O-])Cc3ncc(C)c(OC)c3C)nc2c1 (stereo not given) [OMEPRAZOLE],Not Active,Not Active
Cc1nccn1CC1CCc2c(c3ccccc3n2C)C1=O (stereo not given) [ONDANSETRON],Not Active,Not Active
CCn1cc(C(=O)O)c(=O)c2cc(F)c(N3CCN(C)CC3)cc21 [PEFLOXACIN],Not Active,Not Active

# Tested on: not listed separately
# Assay: DRUGMATRIX: Sodium/nucleoside co-transporter radioligand binding (ligand: nitrobenzylthioinosine)
# Format: cell membranes, Cavia porcellus, Dunkin-Hartley, Cerebral cortex, Membrane
# Settings: Not Active = under 50% inhibition at 10 µM
SMILES,IC50,Ki
CCOC(=O)C1=C(C)NC(C)=C(C(=O)OC)C1c1cccc([N+](=O)[O-])c1 (stereo not given) [NITRENDIPINE],Not Active,Not Active
C#C[C@]1(OC(C)=O)CC[C@H]2[C@@H]3CCC4=CC(=O)CC[C@@H]4[C@H]3CC[C@@]21C [NORETHINDRONE ACETATE],Not Active,Not Active
COc1ccc2[nH]c([S+]([O-])Cc3ncc(C)c(OC)c3C)nc2c1 (stereo not given) [OMEPRAZOLE],Not Active,Not Active
Cc1nccn1CC1CCc2c(c3ccccc3n2C)C1=O (stereo not given) [ONDANSETRON],Not Active,Not Active
CCn1cc(C(=O)O)c(=O)c2cc(F)c(N3CCN(C)CC3)cc21 [PEFLOXACIN],Not Active,Not Active
